The target in one assay is T1, KMO (Homo sapiens, UniProt O15229).
T1 construct: GST; His; expressed in transfected cells; host or cells: CHO (CHO-GST HIS KMO cell line)
Put plainly: KMO inhibition: L-kynurenine hydroxylation to 3OH-KYN monitored by LC/MS. The assay is classed as biochemical. Particulars: 10 μM compound. How it is done:
A generalized procedure for monitoring L-Kynurenine (KYN) hydroxylation to form product 3-Hydroxy-Kynurenine (3OH—KYN) by LC/MS is described below. Product is quantified by multiple reaction monitoring using MS.
IC50's are calculated using automated fitting algorithm (A+ Analysis)
A method of monitoring L-Kynurenine (KYN) hydroxylation to form product 3-Hydroxy-Kynurenine (3OH—KYN) by LC/MS is described below. Product is quantified by multiple reaction monitoring.
• Compound: Stock concentrations: 10 mM in 100% DMSO • Enzyme: KMO enzyme prepared at Evotec via mitochondria isolation from CHO-GST HIS KMO cells • Substrate: L-Kynurenine (Sigma: Cat#K3750) • [stock concentration: 10 mM in 100 mM potassium phosphate buffer, pH 7.4]
IC50's are calculated using automated fitting algorithm (A+ Analysis).
A method of monitoring L-Kynurenine (KYN) hydroxylation to form 3-Hydroxy-Kynurenine (3OH—KYN) by LC/MS is described. Product is quantified by multiple reaction monitoring (MRM method).

In assay [1] the test system is KP metabolites (KYN, KYNA, AA, 3-HK) via KMO inhibition. Put plainly: Microdialysis after PO dosing at various dosage levels: KP metabolites in striatum extracellular space. The class given is in vivo. Particulars: PO 3, 10 or 30 mg/kg; mouse striatum microdialysis. How it is done:
(§1) Animals were anesthetized using isoflurane (2%, 800 mL/min O2). Bupivacain/epinephrine was used for local analgesia, finadyne or carprophen for peri-/post-operative analgesia. The animals were placed in a stereotaxic frame (Kopf instruments, USA). I-shaped probes (membrane: polyacrylonitrile, 3 mm exposed surface; Brainlink, the Netherlands) were inserted in the striatum. After surgery, animals were kept individually in cages; provided food and water ad libitum.
(§2) Experiments were performed one day after surgery. On the day of the experiment, the probes of the animals were connected with flexible PEEK tubing to a microperfusion pump (Harvard PHD 2000 Syringe pump, Holliston, Mass. or similar). The I-shaped microdialysis probes were perfused with aCSF containing 147 mM NaCl, 3.0 mM KCl, 1.2 mM CaCl2 and 1.2 mM MgCl2, at a flow rate of 1.5 μL/min. Microdialysis samples were collected at 20-minute intervals by an automated fraction collector (820 Microsampler, Univentor, Malta or similar) into mini-vials already containing 10 μL 0.02 M formic acid (FA) and 0.04% ascorbic acid in ultrapurified H2O. At t=−30 min vehicle or KMO inhibitor were be administered, to ensure central and peripheral inhibition of KMO at the time of administration of kynurenine. At t=0 vehicle or kynurenine were administered. Microdialysate samples were collected for 240 min after administration of kynurenine. All the dialysis samples were stored at −80° C. awaiting their analysis. Dialysate levels of any or all of KP metabolites KYN, KYNA, 3-OH—KYN, AA and QA were quantified by LC-MS/MS at by Brains On-Line. After the experiment, the mice were sacrificed and terminal brain (striatum+cortex), liver, kidney, plasma and CSF samples were collected for analysis of KP metabolites. Levels of KP metabolites were measured in terminal brain (striatum+cortex), liver, kidney, plasma and CSF samples at Brains On-Line. Finally, levels of kynurenine and KMO inhibitors in dose formulation samples were quantified by Brains On-Line.
A method of examining the modulation of KYN, KYNA, AA, and 3-HK via KMO inhibition with Compound 6 in striatum extracellular space is disclosed. […] Following the microdialysis procedure described herein, dialysate levels of KP metabolites KYN, KYNA, 3-HK, and AA were quantified by LC-MS/MS at by Brains On-Line.

The next assay relates to KP metabolite KYNA. As to the kind of experiment: Microdialysis after PO dosing in WT and HD (Q175_KI homozygous) animals: KYNA in striatum. The class given is in vivo, mouse. Particulars: PO 3 mg/kg or 10 mg/kg. How it is done: as §1
Experiments were performed one day after surgery. On the day of the experiment, the probes of the animals were connected with flexible PEEK tubing to a microperfusion pump (Harvard PHD 2000 Syringe pump, Holliston, Mass. or similar). […] Dialysate levels of any or all of KP metabolites KYN, KYNA, 3-OH—KYN, AA and QA were quantified by LC-MS/MS at by Brains On-Line. […] Levels of KP metabolites were measured in terminal brain (striatum+cortex), liver, kidney, plasma and CSF samples at Brains On-Line. Finally, levels of kynurenine and KMO inhibitors in dose formulation samples were quantified by Brains On-Line.
A method of examining the modulation of KP metabolites in HD animals similar to WT controls is disclosed. […] Following the microdialysis procedure described herein, dialysate levels of KP metabolite KYNA was quantified by LC-MS/MS at by Brains On-Line. […]

The test system of assay [2] is extracellular levels of KYN, KYNA, 3-OH-KYN, AA and QA in the striatum. Put plainly: Microdialysis after PO dosing of kynurenine, Compound 6 or both: extracellular KP metabolites in striatum. The assay is classed as in vivo, adult male WT mice. The settings on record: 30 mg/kg p.o., dosed alone; WT mice. How it is done:
as §1, §2
A method of examining the pharmacodynamic effects of kynurenine (30 mg/kg, p.o.) and Compound 6 (30 mg/kg, p.o.) on extracellular levels of KYN, KYNA, 3-OH—KYN, AA and QA in the striatum (STR) of adult male WT mice either co-dosed or dosed independently is disclosed.
Furthermore, PO administration of Compound 6 blocks toxic metabolites 3-OH—KYN (see FIG. 10) and QA (see FIG. 11), whereas kynurenine dosing increases them, due to kynurenine catabolism in mice brain.

In assay [3] the target is NMDA receptor NR2A subunit (Homo sapiens, UniProt Q12879). Particulars: NMDA receptor agonist; cited from earlier work.
Sequence of NMDA receptor NR2A subunit (Q12879 23-1464, other chains not shown): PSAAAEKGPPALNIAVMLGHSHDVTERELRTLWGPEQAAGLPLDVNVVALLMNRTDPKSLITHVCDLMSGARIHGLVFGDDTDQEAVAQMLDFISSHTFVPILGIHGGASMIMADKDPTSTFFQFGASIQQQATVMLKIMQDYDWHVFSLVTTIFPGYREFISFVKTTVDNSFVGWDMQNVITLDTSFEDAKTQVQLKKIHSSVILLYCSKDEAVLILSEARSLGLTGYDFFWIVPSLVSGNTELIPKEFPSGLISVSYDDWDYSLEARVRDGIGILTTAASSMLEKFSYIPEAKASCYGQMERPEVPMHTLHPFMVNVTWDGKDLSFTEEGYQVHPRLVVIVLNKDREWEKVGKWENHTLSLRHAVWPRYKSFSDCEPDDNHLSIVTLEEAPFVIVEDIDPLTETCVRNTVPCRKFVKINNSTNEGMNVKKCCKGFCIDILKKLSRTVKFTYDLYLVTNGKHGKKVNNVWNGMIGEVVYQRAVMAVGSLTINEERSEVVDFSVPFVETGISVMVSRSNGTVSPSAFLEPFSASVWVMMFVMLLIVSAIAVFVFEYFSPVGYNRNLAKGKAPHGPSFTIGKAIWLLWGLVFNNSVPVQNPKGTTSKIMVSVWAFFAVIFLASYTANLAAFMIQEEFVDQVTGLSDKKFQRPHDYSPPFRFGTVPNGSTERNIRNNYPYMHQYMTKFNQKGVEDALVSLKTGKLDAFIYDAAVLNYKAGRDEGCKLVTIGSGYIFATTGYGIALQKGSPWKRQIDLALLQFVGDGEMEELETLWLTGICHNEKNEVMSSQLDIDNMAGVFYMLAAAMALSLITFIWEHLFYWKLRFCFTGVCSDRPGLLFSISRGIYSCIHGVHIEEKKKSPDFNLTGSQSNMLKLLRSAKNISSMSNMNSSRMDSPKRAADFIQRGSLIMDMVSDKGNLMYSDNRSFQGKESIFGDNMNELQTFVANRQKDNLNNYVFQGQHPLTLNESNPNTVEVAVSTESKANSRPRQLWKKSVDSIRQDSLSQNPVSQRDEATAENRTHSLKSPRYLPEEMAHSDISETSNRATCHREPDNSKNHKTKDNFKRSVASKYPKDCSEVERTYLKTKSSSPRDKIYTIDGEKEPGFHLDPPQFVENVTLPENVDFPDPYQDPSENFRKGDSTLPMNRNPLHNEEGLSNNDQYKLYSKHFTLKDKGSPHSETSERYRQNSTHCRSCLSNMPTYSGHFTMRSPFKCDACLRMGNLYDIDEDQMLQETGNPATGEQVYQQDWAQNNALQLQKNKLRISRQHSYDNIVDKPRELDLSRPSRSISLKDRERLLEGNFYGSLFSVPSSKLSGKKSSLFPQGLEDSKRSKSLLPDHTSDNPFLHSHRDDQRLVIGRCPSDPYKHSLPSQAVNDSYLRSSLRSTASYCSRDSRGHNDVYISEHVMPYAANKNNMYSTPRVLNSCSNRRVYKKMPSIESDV
For assay [4], the target named is NMDA receptor NR2B subunit (Homo sapiens, UniProt Q13224). The settings on record: NMDA receptor agonist; cited from earlier work.
Sequence of NMDA receptor NR2B subunit (Q13224 27-1484, other chains not shown): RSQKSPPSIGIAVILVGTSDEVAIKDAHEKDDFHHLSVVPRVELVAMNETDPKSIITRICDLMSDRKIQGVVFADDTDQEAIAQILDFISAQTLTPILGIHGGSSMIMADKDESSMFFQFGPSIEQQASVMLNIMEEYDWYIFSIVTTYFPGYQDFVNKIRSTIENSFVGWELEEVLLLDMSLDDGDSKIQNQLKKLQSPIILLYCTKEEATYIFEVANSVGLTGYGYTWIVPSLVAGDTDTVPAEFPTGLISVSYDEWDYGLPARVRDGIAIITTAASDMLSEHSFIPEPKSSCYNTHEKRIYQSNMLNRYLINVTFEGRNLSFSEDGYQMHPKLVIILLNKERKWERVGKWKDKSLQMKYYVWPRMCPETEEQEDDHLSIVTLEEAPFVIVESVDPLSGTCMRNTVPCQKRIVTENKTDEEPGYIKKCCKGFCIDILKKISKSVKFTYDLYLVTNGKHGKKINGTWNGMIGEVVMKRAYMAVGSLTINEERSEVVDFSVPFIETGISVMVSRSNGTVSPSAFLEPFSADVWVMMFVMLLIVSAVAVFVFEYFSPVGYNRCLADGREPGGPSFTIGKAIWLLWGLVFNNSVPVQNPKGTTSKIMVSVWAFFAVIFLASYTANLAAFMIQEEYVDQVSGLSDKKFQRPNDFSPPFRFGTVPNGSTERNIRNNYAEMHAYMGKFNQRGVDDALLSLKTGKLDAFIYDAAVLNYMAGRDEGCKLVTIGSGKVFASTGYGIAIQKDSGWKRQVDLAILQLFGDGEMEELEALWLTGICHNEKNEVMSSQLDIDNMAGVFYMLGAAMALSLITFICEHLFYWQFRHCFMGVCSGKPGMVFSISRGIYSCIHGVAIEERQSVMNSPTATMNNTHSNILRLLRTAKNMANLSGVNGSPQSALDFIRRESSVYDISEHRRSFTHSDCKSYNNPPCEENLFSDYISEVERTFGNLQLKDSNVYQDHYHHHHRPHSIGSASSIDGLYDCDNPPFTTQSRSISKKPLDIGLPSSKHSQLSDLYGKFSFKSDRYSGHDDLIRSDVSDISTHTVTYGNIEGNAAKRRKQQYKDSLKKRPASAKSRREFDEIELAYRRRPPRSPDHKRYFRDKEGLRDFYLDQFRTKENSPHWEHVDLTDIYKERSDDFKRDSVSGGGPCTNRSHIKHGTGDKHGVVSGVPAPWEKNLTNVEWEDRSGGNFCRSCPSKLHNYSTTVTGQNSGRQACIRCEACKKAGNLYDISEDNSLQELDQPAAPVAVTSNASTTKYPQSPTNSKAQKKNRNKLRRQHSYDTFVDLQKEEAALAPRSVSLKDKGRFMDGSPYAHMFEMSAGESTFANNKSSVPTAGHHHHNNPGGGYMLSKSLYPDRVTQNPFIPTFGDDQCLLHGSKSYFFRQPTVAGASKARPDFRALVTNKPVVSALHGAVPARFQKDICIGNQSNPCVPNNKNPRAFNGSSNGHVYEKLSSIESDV

“Also recorded” adds a separate entry of the source.

T1 sequence (O15229 whole entry): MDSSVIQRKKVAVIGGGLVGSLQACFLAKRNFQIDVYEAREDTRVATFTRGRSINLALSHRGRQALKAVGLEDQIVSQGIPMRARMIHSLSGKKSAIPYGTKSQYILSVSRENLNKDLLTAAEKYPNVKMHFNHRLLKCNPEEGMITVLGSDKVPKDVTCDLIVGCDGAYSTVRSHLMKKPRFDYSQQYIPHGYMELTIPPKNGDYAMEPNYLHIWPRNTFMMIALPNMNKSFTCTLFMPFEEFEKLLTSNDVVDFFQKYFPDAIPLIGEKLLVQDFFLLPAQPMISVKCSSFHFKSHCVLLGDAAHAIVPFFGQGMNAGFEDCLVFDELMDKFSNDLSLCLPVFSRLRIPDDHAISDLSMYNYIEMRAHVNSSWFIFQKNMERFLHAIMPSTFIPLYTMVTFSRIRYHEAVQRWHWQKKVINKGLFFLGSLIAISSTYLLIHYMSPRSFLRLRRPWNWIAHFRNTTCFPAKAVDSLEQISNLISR

Regarding `CC[C@H](C)Oc1ccc(-c2cc(C(=O)O)ncn2)cc1Cl` [Compound 4, (S)-6-(4-sec-butoxy-3-chlorophenyl)pyrimidine-4-carboxylic acid], the inhibition (in general, the drop in the measured response relative to a control, in per cent) at 10 µM on KMO worked out at 100%.
Still for that read-out and setting: for `CC[C@@H](C)Oc1ccc(-c2cc(C(=O)O)ncn2)cc1Cl` [Compound 5, (R)-6-(4-sec-butoxy-3-chlorophenyl)pyrimidine-4-carboxylic acid] the value was 100%.
In turn, `O=C(O)c1cc(-c2ccc(OC3CC3)c(Cl)c2)ncn1` [Compound 6, 6-(3-chloro-4-cyclopropoxyphenyl)pyrimidine-4-carboxylic acid] displayed an inhibition at 10 µM at KMO of 100%. Further, in assay [1], the “3-HK in striatum extracellular space” value is listed as “insufficient modulation; also recorded: little or no effect”, the “AA in striatum extracellular space” value is “dose dependent increases”, the “KYN in striatum extracellular space” value is given as “dose dependent increases” and the “KYNA in striatum extracellular space” value is “dose dependent increases”. Also, the “KP metabolite KYNA in striatum, HD mice” value with KP metabolite KYNA (Q175_KI homozygous (HD) mice) was “dose dependent increase; also recorded: increases”. The “KP metabolite KYNA in striatum, WT mice” value in the assay on KP metabolite KYNA (wild type mice) is given as “dose dependent increase; also recorded: increases”. Further, in assay [2], the 3-OH-KYN in striatum entry is reported as “blocks”, the AA in striatum result was “increases”, the KYN in striatum result was “increases” and the KYNA in striatum entry is given as “increases”. Moreover, the QA in striatum result in assay [2] is reported as “blocks”.
In the case of `O=C(O)c1cccnc1C(=O)O` [QUIN, quinolinic acid], in assay [3], the “affinity for NR2A subunit” value is 7 to 10 µmol. For the same molecule, the “affinity for NR2B subunit” value in assay [4] was 100 µmol.
On to `Nc1ccccc1C(=O)CC(N)C(=O)O` (stereo not drawn) [kynurenine, reference compound], for which, in assay [2], the 3-OH-KYN in striatum entry is listed as “increases”, the AA in striatum result is given as “little or no effect”, the KYN in striatum result is “little or no effect” and the KYNA in striatum entry is “little or no effect”. The QA in striatum result in assay [2] is “increases”.

Values taken from patent US10258621B2, “Methods and compositions for treating HIV-related disorders” (CHDI Foundation, Inc., priority 2014, dated 2019).
